The results in this text go back to patent publication US10597364B2, “Anthelmintic compounds, compositions and method of using thereof” (priority 2015, dated 2020).

One test concerns Haemonchus contortus. The experiment in a line: Method A: Haemonchus contortus L1 larval development/motility screen in microtitre plate. The class given is cell-based. As to conditions: 96 h, read-out: motility inhibition.
Test [1] deals with microfilaria of Dirofilaria immitis. The experiment in a line: Method C: microfilaria of Dirofilaria immitis motility screen. The class given is cell-based. As to conditions: read-out: inhibition of the microfilaria's motility.

Read-outs that look alike come from different tables or passages of the source.

Broadly, the inhibition is the relative decrease from the control value, in per cent. For `O=C(OC1CCCC1)N1CCN(c2cncc(O[C@H]3CC[C@H](Nc4ccc([N+](=O)[O-])c(C(F)(F)F)c4)CC3)c2)CC1` [Compound 196, cyclopentyl 4-(5-[[4-[[4-nitro-3-(trifluoromethyl)phenyl]amino]cyclohexyl]oxy]pyridin-3-yl)piperazine-1-carboxylate], the inhibition at 5 µM in the test on Haemonchus contortus was not below 90%. The inhibition at 5 ppm in test [1] (24 h) was not below 90%.

For the compound `CCOCCC(=O)N1CCN(c2cc(O[C@H]3CC[C@H](Nc4ccc([N+](=O)[O-])c(C(F)(F)F)c4)CC3)ccn2)CC1` [Compound 70], the inhibition at 5 µM with Haemonchus contortus was not below 90%. Besides, the inhibition at 10 µM in test [1] (24 h) was not below 90%.

As for `O=[N+]([O-])c1ccc(N[C@H]2CC[C@H](Oc3ccnc(N4CCN(C/C=C/c5ccc(C(F)(F)F)cc5)CC4)c3)CC2)cc1C(F)(F)F` [Compound 76], the inhibition at 5 µM with Haemonchus contortus is not below 90%. Besides, in test [1] (24 h), the inhibition at 5 ppm was not below 90%.

For `CCOC(=O)N1CCN(c2cncc(O[C@H]3CC[C@H](Nc4ccc([N+](=O)[O-])c(C(F)(F)F)c4)CC3)c2)CC1` [Compound 38], the inhibition at 5 µM with Haemonchus contortus was not below 90%. Besides, the inhibition at 5 ppm in test [1] (24 h) was not below 90%.

For `CCCN1CCN(c2cncc(O[C@H]3CC[C@H](Nc4ccc([N+](=O)[O-])c(C(F)(F)F)c4)CC3)c2)CC1` [Compound 77], the inhibition at 5 µM in the test on Haemonchus contortus was not below 90%. Moreover, the inhibition at 10 µM in test [1] (24 h) is not below 90%.

Regarding `CC(C)(C)NC(=O)N1CCN(c2cc(O[C@H]3CC[C@H](Nc4ccc([N+](=O)[O-])c(C(F)(F)F)c4)CC3)ccn2)CC1` [Compound 49], the inhibition at 5 µM with Haemonchus contortus was not below 90%. For the same compound, the inhibition at 10 µM in test [1] (24 h) was not below 90%.

In the case of `CCCCN1CCN(c2cc(O[C@H]3CC[C@H](Nc4ccc([N+](=O)[O-])c(C(F)(F)F)c4)CC3)ccn2)CC1` [Compound 41], in the test on Haemonchus contortus, the inhibition at 5 µM was not below 90%. Further, the inhibition at 10 µM in test [1] (24 h) was not below 90%.

As to `CCC(=O)N1CCN(c2cncc(O[C@H]3CC[C@H](Nc4ccc([N+](=O)[O-])c(C(F)(F)F)c4)CC3)c2)CC1` [Compound 64], the inhibition at 5 µM in the test with Haemonchus contortus was not below 90%. Also, the inhibition at 5 ppm in test [1] (24 h) is not below 90%.

In the case of `O=C(CC1CCCC1)N1CCN(c2cc(O[C@H]3CC[C@H](Nc4ccc(S(=O)(=O)C(F)(F)F)cc4)CC3)ccn2)CC1` [Compound 188], the inhibition at 5 µM in the test with Haemonchus contortus was not below 90%. The inhibition at 10 µM in test [1] (24 h) was not below 90%.

For `CCCNC(=O)N1CCN(c2ccnc(O[C@H]3CC[C@H](Nc4ccc([N+](=O)[O-])c(C(F)(F)F)c4)CC3)c2)CC1` [Compound 85], the inhibition at 5 µM in the test with Haemonchus contortus was not below 90%. For the same compound, the inhibition at 5 ppm in test [1] (5 ppm, 24 hours) is not below 90%.

Consider `CC(C)(C)CN1CCN(c2cc(O[C@H]3CC[C@H](Nc4ccc([N+](=O)[O-])c(C(F)(F)F)c4)CC3)ccn2)CC1` [Compound 67], for which the inhibition at 5 µM with Haemonchus contortus was not below 90%. Also, in test [1] (10 μM, 24 hours), the inhibition at 10 µM is not below 90%.

Turning to `CC(C)(C)NC(=O)N1CCN(c2ccnc(O[C@H]3CC[C@H](Nc4ccc([N+](=O)[O-])c(C(F)(F)F)c4)CC3)c2)CC1` [Compound 65, N-tert-butyl-4-[2-[(4-[[4-nitro-3-(trifluoromethyl)phenyl]amino]cyclohexyl)oxy]pyridin-4-yl]piper-azine-1-carboxamide], the inhibition at 5 µM in the test on Haemonchus contortus is not below 90%. The inhibition at 5 ppm in test [1] (24 h) was not below 90%.

Take `CCC(=O)N1CCN(c2cc(O[C@H]3CC[C@H](Nc4ccc([N+](=O)[O-])c(C(F)(F)F)c4)CC3)ccn2)CC1` [Compound 60]: the inhibition at 5 µM with Haemonchus contortus is not below 90%. The inhibition at 10 µM in test [1] (10 μM, 24 hours) was not below 90%.

With `N#Cc1ccc(N[C@H]2CC[C@H](Oc3ccnc(N4CCN(C(=O)CC5CCCC5)CC4)c3)CC2)cc1C(F)(F)F` [Compound 177], the inhibition at 5 µM with Haemonchus contortus is not below 90%. Also, the inhibition at 10 µM in test [1] (24 h) was not below 90%.

For `N#Cc1ccc(N[C@H]2CC[C@H](Oc3cc(N4CCN(C(=O)CC5CCCC5)CC4)ccn3)CC2)cc1C(F)(F)F` [Compound 183], in the test on Haemonchus contortus, the inhibition at 5 µM is not below 90%. The inhibition at 10 µM in test [1] (24 h) is not below 90%.

As to `CC(C)(C)NC(=O)N1CCN(c2cncc(O[C@H]3CC[C@H](Nc4ccc([N+](=O)[O-])c(C(F)(F)F)c4)CC3)c2)CC1` [Compound 66], the inhibition at 5 µM with Haemonchus contortus is not below 90%. Also, in test [1] (24 h), the inhibition at 5 ppm is not below 90%.

For `CC(C)(C)CC(=O)N1CCN(c2ccnc(O[C@H]3CC[C@H](Nc4ccc([N+](=O)[O-])c(C(F)(F)F)c4)CC3)c2)CC1` [Compound 25], the inhibition at 5 µM in the test on Haemonchus contortus is not below 90%. Further, the inhibition at 10 µM in test [1] (24 h) was not below 90%.

Take `O=[N+]([O-])c1ccc(N[C@H]2CC[C@H](Oc3cncc(N4CCN(C/C=C/c5ccc(C(F)(F)F)cc5)CC4)c3)CC2)cc1C(F)(F)F` [Compound 48]: in the test with Haemonchus contortus, the inhibition at 5 µM is not below 90%. Further, the inhibition at 5 ppm in test [1] (24 h) was not below 90%.

Regarding `O=C(CC(F)(F)F)N1CCN(c2cc(O[C@H]3CC[C@H](Nc4ccc([N+](=O)[O-])c(C(F)(F)F)c4)CC3)ccn2)CC1` [Compound 71], the inhibition at 5 µM with Haemonchus contortus is not below 90%. Also, the inhibition at 10 µM in test [1] (24 h) was not below 90%.

Consider `O=C(Oc1ccc(F)cc1)N1CCN(c2ccnc(O[C@H]3CC[C@H](Nc4ccc([N+](=O)[O-])c(C(F)(F)F)c4)CC3)c2)CC1` [Compound 30], for which the inhibition at 5 µM in the test on Haemonchus contortus is not below 90%. For the same compound, the inhibition at 5 ppm in test [1] (24 h) is not below 90%.

As for `O=C(Nc1ccc(F)cc1)N1CCN(c2cncc(O[C@H]3CC[C@H](Nc4ccc([N+](=O)[O-])c(C(F)(F)F)c4)CC3)c2)CC1` [Compound 106], the inhibition at 5 µM in the test on Haemonchus contortus was not below 90%. Besides, the inhibition at 10 µM in test [1] (10 μM, 24 hours) is not below 90%.

On to `O=C(NC1CCCC1)N1CCN(c2cncc(O[C@H]3CC[C@H](Nc4ccc([N+](=O)[O-])c(C(F)(F)F)c4)CC3)c2)CC1` [Compound 82], for which the inhibition at 5 µM with Haemonchus contortus is not below 90%. Also, the inhibition at 10 µM in test [1] (24 h) is not below 90%.

Take `O=C(N1CCN(c2ccnc(O[C@H]3CC[C@H](Nc4ccc([N+](=O)[O-])c(C(F)(F)F)c4)CC3)c2)CC1)C(F)(F)F` [Compound 58]: the inhibition at 5 µM with Haemonchus contortus is not below 90%. Besides, the inhibition at 5 ppm in test [1] (5 ppm, 24 hours) is not below 90%.

On to `CCCOC(=O)N1CCN(c2cc(O[C@H]3CC[C@H](Nc4ccc([N+](=O)[O-])c(C(F)(F)F)c4)CC3)ccn2)CC1` [Compound 26], for which the inhibition at 5 µM in the test on Haemonchus contortus is not below 90%. Moreover, the inhibition at 10 µM in test [1] (24 h) is not below 90%.

With `O=[N+]([O-])c1ccc(N[C@H]2CC[C@H](Oc3cc(N4CCN(CC5CCCC5)CC4)ccn3)CC2)cc1C(F)(F)F` [Compound 47], the inhibition at 5 µM with Haemonchus contortus was not below 90%. Also, in test [1] (24 h), the inhibition at 10 µM was not below 90%.

On to `O=[N+]([O-])c1ccc(N[C@H]2CC[C@H](Oc3ccnc(N4CCN(Cc5nc6cc(C(F)(F)F)ccc6s5)CC4)c3)CC2)cc1C(F)(F)F` [Compound 86], for which, in the test with Haemonchus contortus, the inhibition at 5 µM is not below 90%. The inhibition at 5 ppm in test [1] (24 h) was not below 90%.

As to `O=[N+]([O-])c1ccc(N[C@H]2CC[C@H](Oc3cc(N4CCN(C(=S)Nc5ccc(C(F)(F)F)cc5)CC4)ccn3)CC2)cc1C(F)(F)F` [Compound 68, 4-[2-[(4-[[4-nitro-3-(trifluoromethyl)phenyl]amino]cyclohexyl)oxy]pyridin-4-yl]-N-[4-(trifluoromethyl)phenyl]piperazine-1-carbothioamide], in the test with Haemonchus contortus, the inhibition at 5 µM was not below 90%. The inhibition at 5 ppm in test [1] (24 h) is not below 90%.

On to `O=C(Cc1ccc(F)cc1)N1CCN(c2cc(O[C@H]3CC[C@H](Nc4ccc([N+](=O)[O-])c(C(F)(F)F)c4)CC3)ccn2)CC1` [Compound 46], for which the inhibition at 5 µM in the test on Haemonchus contortus is not below 90%. In addition, the inhibition at 10 µM in test [1] (24 h) is not below 90%.

Regarding `CC(C)(C)CN1CCN(c2cncc(O[C@H]3CC[C@H](Nc4ccc([N+](=O)[O-])c(C(F)(F)F)c4)CC3)c2)CC1` [Compound 54], in the test with Haemonchus contortus, the inhibition at 5 µM was not below 90%. For the same compound, the inhibition at 10 µM in test [1] (10 μM, 24 hours) was not below 90%.

As for `CC(C)(C)CC(=O)N1CCN(c2cc(O[C@H]3CC[C@H](Nc4ccc([N+](=O)[O-])c(C(F)(F)F)c4)CC3)ccn2)CC1` [Compound 33], the inhibition at 5 µM with Haemonchus contortus is not below 90%. For the same compound, the inhibition at 10 µM in test [1] (24 h) was not below 90%.

For the compound `O=[N+]([O-])c1ccc(N[C@H]2CC[C@H](Oc3cc(N4CCN(C(=S)Nc5ccc(F)cc5)CC4)ccn3)CC2)cc1C(F)(F)F` [Compound 89], the inhibition at 5 µM with Haemonchus contortus was not below 90%. Also, the inhibition at 5 ppm in test [1] (24 h) is not below 90%.

`O=[N+]([O-])c1ccc(N[C@H]2CC[C@H](Oc3cc(N4CCN(C(=S)NC5CCCC5)CC4)ccn3)CC2)cc1C(F)(F)F` [Compound 81]: in the test with Haemonchus contortus, the inhibition at 5 µM was not below 90%. Moreover, in test [1] (24 h), the inhibition at 1 ppm is not below 90% and the inhibition at 5 ppm was not below 90%.

In the case of `CCNC(=O)N1CCN(c2ccnc(O[C@H]3CC[C@H](Nc4ccc([N+](=O)[O-])c(C(F)(F)F)c4)CC3)c2)CC1` [Compound 96], the inhibition at 5 µM with Haemonchus contortus is not below 90%. In addition, the inhibition at 10 µM in test [1] (24 h) was not below 90%.

As for `COCCOCC(=O)N1CCN(c2cc(O[C@H]3CC[C@H](Nc4ccc([N+](=O)[O-])c(C(F)(F)F)c4)CC3)ccn2)CC1` [Compound 72], the inhibition at 5 µM in the test on Haemonchus contortus is not below 90%. Also, in test [1] (24 h), the inhibition at 10 µM is not below 90%.

As for `N#Cc1ccc(N[C@H]2CC[C@H](Oc3cncc(N4CCN(Cc5ccc(C(F)(F)F)cc5)CC4)c3)CC2)cc1C(F)(F)F` [Compound 181], the inhibition at 5 µM in the test on Haemonchus contortus is not below 90%. For the same compound, the inhibition at 10 µM in test [1] (24 h) is not below 90%.

Consider `CCCNC(=O)N1CCN(c2cncc(O[C@H]3CC[C@H](Nc4ccc([N+](=O)[O-])c(C(F)(F)F)c4)CC3)c2)CC1` [Compound 95], for which the inhibition at 5 µM with Haemonchus contortus is not below 90%. Further, in test [1] (10 μM, 24 hours), the inhibition at 10 µM is not below 90%.

For `O=[N+]([O-])c1ccc(N[C@H]2CC[C@H](Oc3ccc(N4CCN(C/C=C/c5ccc(C(F)(F)F)cc5)CC4)nc3)CC2)cc1C(F)(F)F` [Compound 80], the inhibition at 5 µM with Haemonchus contortus is not below 90%. Also, in test [1] (24 h), the inhibition at 1 ppm was not below 90% and the inhibition at 5 ppm was not below 90%.

`CCCN1CCN(c2ccnc(O[C@H]3CC[C@H](Nc4ccc([N+](=O)[O-])c(C(F)(F)F)c4)CC3)c2)CC1` [Compound 87]: in the test with Haemonchus contortus, the inhibition at 5 µM is not below 90%. The inhibition at 10 µM in test [1] (24 h) is not below 90%.

Consider `CCCCC(=O)N1CCN(c2cncc(O[C@H]3CC[C@H](Nc4ccc([N+](=O)[O-])c(C(F)(F)F)c4)CC3)c2)CC1` [Compound 19, 1-[4-(5-[[4-[[4-nitro-3-(trifluoromethyl)phenyl]amino]cyclohexyl]oxy]pyridin-3-yl)piperazin-1-yl]pentan-1-one], for which, in the test with Haemonchus contortus, the inhibition at 5 µM was not below 90%.
